Like-named read-outs stand apart in the source and are kept apart here.
What was measured:
[1] = Water solubility test (Japanese Pharmacopoeia solubility test method); format: physicochemical; conditions: 20±5° C., dissolution in 30 min; for evaluation (water solubility): criteria of Table 9
Experimental: According to the Japanese Pharmacopoeia solubility test method, the compounds of Examples 1 and 7 of the present invention and the corresponding N-methyl unsubstituted compounds were examined for water solubility. To be specific, a test substance was powderized, placed in water and the mixture was vigorously shaken for 30 sec every 5 min at 20±5° C. The solubility was evaluated based on the degree of dissolution in 30 min by reference to the following Table 9.

[2] = tested on: E. coli ATCC 25922; test: Bactericidal activity test (MBC measurement); format: cell-based, Escherichia coli
Experimental: (§1) Each strain was cultured in Trypticase Soy agar medium for 18 to 20 hr, suspended in 0.1% peptone saline, and prepared to OD 600 nm, 1.0 McFarland. The suspension was further diluted with 0.1% peptone saline to give a test bacteria solution (targeted value; 2×10^7 CFU/mL).
(§2) At 0.5, 1 and 3 min from the start of the reaction, a part of the reaction mixture was sampled and mixed with an equal amount of a neutralizing agent (10% Tween 80, 3% lecithin/aqueous solution) to terminate the bactericidal reaction. The reaction mixture was inoculated to a 96 well microplate dispensed with 180 μL of Tripticase Soy liquid medium in advance, and statically cultured at 37° C. for 20 to 24 hr. Thereafter, the presence or absence of growth was visually evaluated, and the minimum concentration at which growth was not observed was taken as the minimal bactericidal concentration (MBC value) of each action time. The numerical values in the Tables show MBC, the unit is μg/mL, S. aureus means Staphylococcus aureus, MRSA means methicillin-resistant Staphylococcus aureus, E. coli means Escherichia coli, and P. aeruginosa means Pseudomonas aeruginosa.

[3] = tested on: S. aureus ATCC 6538; test: Bactericidal activity test (MBC measurement); format: cell-based, Staphylococcus aureus
Experimental: as §1, §2

[4] = tested on: MRSA ATCC 33591; test: Bactericidal activity test (MBC measurement); format: cell-based, methicillin-resistant Staphylococcus aureus
Experimental: as §1, §2

[5] = tested on: P. aeruginosa ATCC 27853; test: Bactericidal activity test (MBC measurement); format: cell-based, Pseudomonas aeruginosa
Experimental: as §1, §2

[6] = tested on: P. aeruginosa PAO-1; test: Bactericidal activity test (MBC measurement); format: cell-based, Pseudomonas aeruginosa
Experimental: as §1, §2

[7] = Skin sensitivity test, LLNA-BrdU method (lymph node weight); format: in vivo; conditions: 5 w/v % in acetone/olive oil 4:1, transdermal to auricle once a day for 3 days, mice
Experimental: For application of an external bactericidal/disinfectant agent to the skin, the sensitivity (allergenicity) is desirably as small as possible. […] The sensitivity was evaluated by a Local lymph node assay (LLNA) method using Bromodeoxyuridine (BrdU). In this test, measurement of the amount of BrdU uptaken by the lymph node using an ELISA kit was not performed, and the evaluation was based solely on the weight increase of the lymph node.
8-Week-old female CBA/JN Crlj mice were grouped (3 per group) according to the adequate strafication method based on the body weight (about 20 g) on the first day of administration. A test substance was prepared to 5 w/v % for each test substance by using a mixed solution of acetone and olive oil (v/v=4:1, A00). This was repeatedly administered transdermally to the auricle of the mice at 25 μL/auricle (50 for both auricles) once a day for 3 days. Two days after the final administration, BrdU 10 mg/mL (0.5 mL/mouse) was intraperitoneally administered. Three days after the final transdermal administration (next day of BrdU administration), carbon dioxide was given by inhalation to a comfortable death, and the auricle lymph node was isolated and the weight thereof was measured.

[8] = Escherichia coli, ATCC25922, 0.5 min, E. coli ATCC 25922, action time 0.5 min, read-out: MBC
[9] = Escherichia coli, ATCC25922, 1 min, E. coli ATCC 25922, action time 1 min, read-out: MBC
[10] = Escherichia coli, ATCC25922, 0.05 h, E. coli ATCC 25922, action time 3 min, read-out: MBC
[11] = Staphylococcus aureus, ATCC6538, 0.5 min, S. aureus ATCC 6538, action time 0.5 min, read-out: MBC
[12] = Staphylococcus aureus, ATCC6538, 1 min, S. aureus ATCC 6538, action time 1 min, read-out: MBC
[13] = Staphylococcus aureus, ATCC6538, 0.05 h, S. aureus ATCC 6538, action time 3 min, read-out: MBC
[14] = Staphylococcus aureus, 0.5 min, MRSA ATCC 33591, action time 0.5 min, read-out: MBC
[15] = Staphylococcus aureus, 1 min, MRSA ATCC 33591, action time 1 min, read-out: MBC
[16] = Staphylococcus aureus, 0.05 h, MRSA ATCC 33591, action time 3 min, read-out: MBC
[17] = Pseudomonas aeruginosa, ATCC27853, 0.5 min, P. aeruginosa ATCC 27853, action time 0.5 min, read-out: MBC
[18] = Pseudomonas aeruginosa, ATCC27853, 1 min, P. aeruginosa ATCC 27853, action time 1 min, read-out: MBC
[19] = Pseudomonas aeruginosa, ATCC27853, 0.05 h, P. aeruginosa ATCC 27853, action time 3 min, read-out: MBC
[20] = Pseudomonas aeruginosa, PAO1, 0.5 min, P. aeruginosa PAO-1, action time 0.5 min, read-out: MBC
[21] = Pseudomonas aeruginosa, PAO1, 1 min, P. aeruginosa PAO-1, action time 1 min, read-out: MBC
[22] = Pseudomonas aeruginosa, PAO1, 0.05 h, P. aeruginosa PAO-1, action time 3 min, read-out: MBC

Structure (SMILES)	water (mL) to dissolve 1 g [1]	evaluation (water solubility) [1]	MBC [2, 8]	MBC [2, 9]	MBC [2, 10]	MBC [3, 11]	MBC [3, 12]	MBC [3, 13]	MBC [4, 14]	MBC [4, 15]	MBC [4, 16]	MBC [5, 17]	MBC [5, 18]	MBC [5, 19]	MBC [6, 20]	MBC [6, 21]	MBC [6, 22]	SI value (Stimulation index, lymph node weight ratio to solvent group) [7]	other results
CCCCCCCCNC1=NC(C)(C)NC(NCc2ccc(Cl)cc2)=N1 [Comp. Ex. 1, reference compound]	110 mL	slightly soluble (not less than 100 mL less than 1,000 mL)	–	–	–	–	–	–	–	–	–	–	–	–	–	–	–	–	–
CCCCCCCCNC1=NC(C)(C)NC(NCc2ccc(C)cc2)=N1 [Comp. Ex. 2, reference compound]	50 mL	sparingly soluble (not less than 30 mL less than 100 mL)	–	–	–	–	–	–	–	–	–	–	–	–	–	–	–	–	–
CCCCCCCCN(C)C1=NC(C)(C)NC(NCc2ccc(Cl)cc2)=N1 [Example 1, N^4-octyl-N^4-methyl-1,6-dihydro-6,6-dimethyl-N^2— (4-chlorobenzyl)-1,3,5-triazine-2,4-diamine acetate]	<0.5 mL	very soluble (less than 1 mL)	12.5 µg/mL	12.5 µg/mL	12.5 µg/mL	50 µg/mL	12 µg/mL	6.25 µg/mL	50 µg/mL	25 µg/mL	12.5 µg/mL	12.5 µg/mL	12.5 µg/mL	12.5 µg/mL	12.5 µg/mL	12.5 µg/mL	12.5 µg/mL	–	–
CCCCCCCCN(C)C(=N)NC(=N)NCc1ccc(Cl)c(Cl)c1.Cl [Example 28, N^5-octyl-N^5-methyl-N^1-(3,4-dichlorobenzyl)biguanide hydrochloride]	–	–	6.25 µg/mL	6.25 µg/mL	6.25 µg/mL	25 µg/mL	12.5 µg/mL	12.5 µg/mL	50 µg/mL	12.5 µg/mL	12.5 µg/mL	25 µg/mL	25 µg/mL	12.5 µg/mL	12.5 µg/mL	12.5 µg/mL	6.25 µg/mL	–	–
CCCCCCCCCCNC(=N)NC(=N)N(C)Cc1ccccc1.Cl.Cl [Example 29, N^5-decyl-N′-methyl-N′-benzyl-biguanide dihydrochloride]	–	–	–	–	–	–	–	–	–	–	–	–	–	–	–	–	–	–	MBC ([2]; E. coli ATCC 25922, action time 0.5 min): 6.25 µg/mL; MBC ([2]; E. coli ATCC 25922, action time 1 min): 6.25 µg/mL; MBC ([2]; E. coli ATCC 25922, action time 3 min): 6.25 µg/mL; MBC ([3]; S. aureus ATCC 6538, action time 0.5 min): 200 µg/mL; MBC ([3]; S. aureus ATCC 6538, action time 1 min): 100 µg/mL; MBC ([3]; S. aureus ATCC 6538, action time 3 min): 12.5 µg/mL; MBC ([4]; MRSA ATCC 33591, action time 0.5 min): 200 µg/mL; MBC ([4]; MRSA ATCC 33591, action time 1 min): 200 µg/mL; MBC ([4]; MRSA ATCC 33591, action time 3 min): 50 µg/mL; MBC ([5]; P. aeruginosa ATCC 27853, action time 0.5 min): 12.5 µg/mL; MBC ([5]; P. aeruginosa ATCC 27853, action time 1 min): 12.5 µg/mL; MBC ([5]; P. aeruginosa ATCC 27853, action time 3 min): 6.25 µg/mL; MBC ([6]; P. aeruginosa PAO-1, action time 0.5 min): 12.5 µg/mL; MBC ([6]; P. aeruginosa PAO-1, action time 1 min): 12.5 µg/mL; MBC ([6]; P. aeruginosa PAO-1, action time 3 min): 6.25 µg/mL
CCCCCCCCCNC(=N)NC(=N)N(C)Cc1ccccc1.Cl.Cl [Example 30, N^5-nonyl-N^1-methyl-N^1-benzyl-biguanide dihydrochloride]	–	–	12.5 µg/mL	12.5 µg/mL	12.5 µg/mL	200 µg/mL	100 µg/mL	25 µg/mL	> 200 µg/mL	> 100 µg/mL	25 µg/mL	6.25 µg/mL	6.25 µg/mL	6.25 µg/mL	12.5 µg/mL	6.25 µg/mL	6.25 µg/mL	–	–
CCCCCCCCNC1=NC(C)(C)N=C(NCC2CCCCC2)N1 [Ref. Ex. 3, 4-octylamino-2-cyclohexylmethylamino-1,6-dihydro-6,6-dimethyl-1,3,5-triazine acetate, reference compound]	–	–	–	–	–	–	–	–	–	–	–	–	–	–	–	–	–	4.6	–
CCCCCCCCNC1=NC(C)(C)NC(Nc2ccccc2)=N1 [Ref. Ex. 4, 1,6-dihydro-6,6-dimethyl-4-octylamino-2-phenylamino-1,3,5-triazine acetate, reference compound]	–	–	–	–	–	–	–	–	–	–	–	–	–	–	–	–	–	4.4	–
CCCCCCCCNC1=NC(C)(C)N=C(NCc2ccc(C)cc2)N1 [Ref. Ex. 5, 4-octylamino-1,6-dihydro-6,6-dimethyl-2-(4-methylbenzylamino-1,3,5-triazine gluconate, reference compound]	–	–	–	–	–	–	–	–	–	–	–	–	–	–	–	–	–	4.4	–

Reference: patent US20110207926A1, “NOVEL DIHYDROTRIAZINE DERIVATIVE” (HAMARI CHEMICALS, LTD., priority 2008, published 2011)
